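These data come from cells grown in 96-well plates and exposed to compound for 48 hours at five concentrations. At the TGI there is no net growth.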

The source of these data is PubChem BioAssay (NCI).

Some test systems named below: DMS 273 small cell lung; IGROV1 ovarian; LXFL 529 NSCLC; NCI-H23 lung; OVCAR-4 ovarian; OVCAR-8 ovarian; RXF 393 renal; SK-MEL-5 melanoma; SR leukemia; UACC-257 melanoma.
Holding throughout (assay): NCI tumour cell line growth inhibition, 48 h

Take `CN1CC(=O)N(C)c2ncn(Cc3ccccc3)c2C1=O`: the TGI in the assay with DMS 273 small cell lung, with IGROV1 ovarian, in the assay with LXFL 529 NSCLC, with NCI-H23 lung, in the assay on OVCAR-4 ovarian and in the assay with OVCAR-8 ovarian was over 100 µM throughout. Moreover, the TGI with RXF 393 renal, with SK-MEL-5 melanoma and in the assay on SR leukemia was over 100 µM each time.

`NC(=O)CCC(Nc1c2ccccc2nc2ccccc12)C(=O)O` (stereo not drawn): the TGI is over 100 µM in the assay with DMS 273 small cell lung; over 100 µM in the assay on LXFL 529 NSCLC; over 100 µM with NCI-H23 lung; 80.8 µM in the assay with OVCAR-4 ovarian; over 100 µM in the assay with OVCAR-8 ovarian; over 100 µM with RXF 393 renal. Besides, the TGI in the assay with SR leukemia and in the assay on UACC-257 melanoma was over 100 µM throughout.

For the compound `CCN(CC)CCCNC(=O)C1COc2cc(-c3cc(=O)c4ccccc4o3)ccc2O1` (stereo not drawn), the TGI in the assay on DMS 273 small cell lung, with IGROV1 ovarian, in the assay with LXFL 529 NSCLC, with NCI-H23 lung, in the assay on OVCAR-4 ovarian and in the assay on OVCAR-8 ovarian was over 100 µM in each case. The TGI with RXF 393 renal was over 100 µM; in the assay on SK-MEL-5 melanoma, 37.6 µM; with SR leukemia, 47.9 µM; with UACC-257 melanoma it was 50.1 µM.

Turning to `COc1ccc(NC(=O)CC/C(CC(=O)C(C)(C)C)=N\NC(=O)C(=O)NN)cc1`, the TGI in the assay with DMS 273 small cell lung, in the assay on IGROV1 ovarian, with LXFL 529 NSCLC, with NCI-H23 lung, with OVCAR-4 ovarian and in the assay with RXF 393 renal was over 100 µM throughout. The TGI in the assay with SK-MEL-5 melanoma, in the assay with SR leukemia and with UACC-257 melanoma was over 100 µM in each case.

As to `CC(=O)c1cccc(C)c1C(=O)O`, the TGI with DMS 273 small cell lung, in the assay on IGROV1 ovarian, in the assay on LXFL 529 NSCLC, in the assay on NCI-H23 lung, in the assay with OVCAR-4 ovarian and in the assay with OVCAR-8 ovarian was over 100 µM each time. Further, the TGI in the assay on RXF 393 renal, with SK-MEL-5 melanoma, in the assay on SR leukemia and in the assay on UACC-257 melanoma was over 100 µM each time.

Turning to `C#CCOCn1cnc2c(Sc3c([N+](=O)[O-])ncn3C)ncnc21`, the TGI in the assay with DMS 273 small cell lung, in the assay with IGROV1 ovarian, in the assay with LXFL 529 NSCLC, in the assay on NCI-H23 lung, in the assay on OVCAR-4 ovarian and with OVCAR-8 ovarian was over 100 µM each time. The TGI in the assay with RXF 393 renal, in the assay with SK-MEL-5 melanoma and in the assay on UACC-257 melanoma was over 100 µM in each case.

Consider `COC(=O)C1=C(O)c2cc(-c3ccccc3)c(-c3ccccc3)c(C#N)c2NC(=O)C1`, for which the TGI in the assay with DMS 273 small cell lung is over 100 µM; in the assay on IGROV1 ovarian it was 4.74 µM; with LXFL 529 NSCLC, over 100 µM; with NCI-H23 lung, over 100 µM; in the assay on OVCAR-4 ovarian, over 100 µM; in the assay on OVCAR-8 ovarian, over 100 µM. In addition, the TGI with RXF 393 renal is 9.33 µM; in the assay on SR leukemia it was over 100 µM; in the assay with UACC-257 melanoma it was over 100 µM.

`CCOc1ccc(N=Cc2ccc3cc(C)ccc3n2)cc1`: the TGI with DMS 273 small cell lung, in the assay with IGROV1 ovarian, with LXFL 529 NSCLC, with NCI-H23 lung, in the assay with OVCAR-4 ovarian and with OVCAR-8 ovarian was over 100 µM in each case. For the same compound, the TGI in the assay with RXF 393 renal, in the assay on SK-MEL-5 melanoma and in the assay on UACC-257 melanoma was over 100 µM throughout.

Turning to `CC(=O)CC(N)=O`, the TGI in the assay on DMS 273 small cell lung, in the assay on IGROV1 ovarian, in the assay with LXFL 529 NSCLC, with NCI-H23 lung, with OVCAR-4 ovarian and in the assay with OVCAR-8 ovarian was over 100 µM in each case. For the same compound, the TGI with RXF 393 renal, in the assay with SK-MEL-5 melanoma, in the assay with SR leukemia and in the assay with UACC-257 melanoma was over 100 µM throughout.

Turning to `CCOC(=O)Cc1ccc2c(c1O)C(=O)c1c(ccc(CC(=O)OCC)c1O)C2=O`, the TGI in the assay on DMS 273 small cell lung, with LXFL 529 NSCLC, in the assay on NCI-H23 lung, in the assay with OVCAR-8 ovarian, in the assay on RXF 393 renal and in the assay with SK-MEL-5 melanoma was over 100 µM each time. Moreover, the TGI in the assay on SR leukemia and in the assay with UACC-257 melanoma was over 100 µM each time.

For the compound `COc1ccc2c3c([nH]c2c1[N+](=O)[O-])C(C)N(Cc1ccc([N+](=O)[O-])cc1)CC3` (stereo not drawn), the TGI is 27.8 µM with DMS 273 small cell lung; over 100 µM in the assay on IGROV1 ovarian; 59.8 µM in the assay on LXFL 529 NSCLC; 44.5 µM with NCI-H23 lung; 12.2 µM with OVCAR-4 ovarian; 64.4 µM with OVCAR-8 ovarian. Also, the values for the TGI in the assay on RXF 393 renal, with SR leukemia and with UACC-257 melanoma were 57.1 µM, over 100 µM and 61.5 µM, respectively.

In the case of `O=C1O[C@H](c2ccccc2)[C@@H]2CC3(CCN12)OCCO3`, the TGI with DMS 273 small cell lung, in the assay on IGROV1 ovarian, in the assay with LXFL 529 NSCLC, in the assay on NCI-H23 lung, in the assay on OVCAR-4 ovarian and in the assay with OVCAR-8 ovarian was over 100 µM throughout. Further, the TGI with RXF 393 renal, with SK-MEL-5 melanoma, with SR leukemia and in the assay with UACC-257 melanoma was over 100 µM each time.

For `CC1=C[C@]2(O)C(=O)[C@H](C)C[C@H]3[C@@H](CC[C@@](C)(O)/C=C\2C1=O)C3(C)C`, the TGI was 52.3 µM in the assay on DMS 273 small cell lung; 53.1 µM in the assay with IGROV1 ovarian; 37.9 µM with LXFL 529 NSCLC; 72.6 µM in the assay with NCI-H23 lung; 71.6 µM in the assay on OVCAR-4 ovarian; 46.9 µM with OVCAR-8 ovarian. Further, the TGI was determined as 19.8 µM with RXF 393 renal, 50.8 µM in the assay on SK-MEL-5 melanoma, 45.2 µM with SR leukemia and 35.7 µM with UACC-257 melanoma.

As for `O=C1C=CC(=O)C12CCc1ccccc12`, the TGI in the assay with DMS 273 small cell lung, in the assay on IGROV1 ovarian, in the assay with LXFL 529 NSCLC, in the assay on NCI-H23 lung, in the assay on OVCAR-4 ovarian and in the assay with OVCAR-8 ovarian was over 100 µM in each case. Further, the TGI with RXF 393 renal, in the assay on SK-MEL-5 melanoma and in the assay with UACC-257 melanoma was over 100 µM throughout.

Turning to `CN(C)CCNC(=O)c1cccc2nc3cc(Cl)ccc3nc12`, the TGI with DMS 273 small cell lung was over 100 µM; with IGROV1 ovarian it was over 50.6 µM; with LXFL 529 NSCLC it was over 22.3 µM; in the assay with NCI-H23 lung, 5.26 µM; in the assay on OVCAR-4 ovarian, 8.54 µM; with OVCAR-8 ovarian it was over 21.3 µM. For the same compound, the TGI in the assay on RXF 393 renal is 6.31 µM; in the assay on SK-MEL-5 melanoma it was over 33.6 µM; in the assay on SR leukemia, over 100 µM; with UACC-257 melanoma it was 8.69 µM.

As for `CC(=O)OC1CCn2nnc(CO)c21` (stereo not drawn), the TGI in the assay with DMS 273 small cell lung, in the assay on IGROV1 ovarian, in the assay with LXFL 529 NSCLC, with NCI-H23 lung, with OVCAR-4 ovarian and in the assay with OVCAR-8 ovarian was over 100 µM each time. Also, the TGI in the assay on RXF 393 renal, with SK-MEL-5 melanoma, in the assay with SR leukemia and with UACC-257 melanoma was over 100 µM throughout.

As to `C=C1C(=O)OC2C1CCC(C)C1C=CC(=O)C12C` (stereo not drawn), the TGI in the assay on DMS 273 small cell lung is 23.5 µM; with IGROV1 ovarian, 19.4 µM; in the assay on LXFL 529 NSCLC, 3.35 µM; in the assay on NCI-H23 lung it was 10.2 µM; in the assay with OVCAR-4 ovarian, 16.6 µM; in the assay with RXF 393 renal, 4.39 µM. In addition, the TGI was determined as 12 µM in the assay with SK-MEL-5 melanoma, 9.73 µM in the assay on SR leukemia and 4.61 µM with UACC-257 melanoma.
